Like-named read-outs stand apart in the source and are kept apart here.
What was measured:
[1] = test system: cardiovascular activities / arrhythmia; settings: cited from earlier work; for cardiovascular activities: Fukuda H. et al
dogs = assay: Ouabain-induced arrhythmia in dogs; assay type: in vivo, dog; settings: for Incidence of arrhythmia: I13 iv 3 mg/kg, lidocaine iv 12 mg/kg
Protocol: (iv, 12 mg/kg) on ouabain induced arrhythmia in dogs
(Ouabain administration for 30 min)

anaesthetized rats [2] = settings: for Arrhythmic scores / Antiarrhythmic effect: X ± SD; for Incidence of VF: n=10; for Death / animals with VF / animals without VF: of n=10
anaesthetized rats [3] = assay: animal or person; settings: Rattus norvegicus
rabbits = assay: Electrically-induced ventricular fibrillation threshold (VFT) in rabbits; assay type: in vivo, rabbit
[4] = test system: Langendorff's perfused rat hearts; assay: Lasting antiarrhythmic action after po administration, hearts removed and mounted on Langendorff's apparatus; assay type: in vivo; settings: 10 mg/kg po at 1 hr before experiment (FIG. 4)
Protocol: 1, 3 and 6 hours after the administration of 100 mg/kg of I13 by p.o. to rats, the hearts were removed and mounted onto Langendorff's apparatus. […] (see FIG. 4)
FIG. 4. Influence of po I13 and mexiletine on the time course of reperfusion-induced arrhythmias in Langendorff's perfused rat hearts

O=C(NCC1CCCCN1)c1cc(OCC(F)(F)F)ccc1OCC(F)(F)F (stereo not shown) [Flecainide]
side effects [1]: marked side effects of pulmonary fibrosis and thyroid function change
effect upon arrhythmia ([1]; clinical use): good effect upon arrhythmia

COc1ccc2cc3[n+](cc2c1OC)CCc1cc2c(cc1-3)OCO2 [berberine]
cardiovascular activities [1]: highly potent cardiovascular activities

CCN(CC)CC(=O)Nc1c(C)cccc1C [Lidocaine, reference compound]
Incidence of arrhythmia (dogs; 0 min (before administration)): 97 ± 8%
Incidence of arrhythmia (dogs; 5 min): 83 ± 41%
Incidence of arrhythmia (dogs; 10 min): 74 ± 42%
Incidence of arrhythmia (dogs; 15 min): 55 ± 46%
Incidence of arrhythmia (dogs; 20 min): 42 ± 45%
Incidence of arrhythmia (dogs; 25 min): 16 ± 24%
Incidence of arrhythmia (dogs; 30 min): 10 ± 17%
Incidence of arrhythmia (dogs; 35 min): 8 ± 10%
Incidence of arrhythmia (dogs; 40 min): 28 ± 25%
Incidence of arrhythmia (dogs; 45 min): 10 ± 14%
Incidence of arrhythmia (dogs; 50 min): 8 ± 15%
Incidence of arrhythmia (dogs; 60 min): 10 ± 21%
reoccurrence of arrhythmia (dogs; within 4 hour period): reoccurrences of VPBs, VT and VF have been detected
oral administration ([1]; clinical use): can not be administered orally
prevention of ventricular fibrillation ([1]; clinical use): can not effectively prevent ventricular fibrillation
suppression of arrhythmia ([1]; clinical use): can effectively suppress arrhythmia
Arrhythmic scores (anaesthetized rats [2]; iv 1.0 mg/kg): 5.3 ± 0.8
Antiarrhythmic effect (anaesthetized rats [2]; iv 1.0 mg/kg, coronary occlusion 5 min): 1.0 ± 1.4
Antiarrhythmic effect (anaesthetized rats [2]; iv 1.0 mg/kg, coronary occlusion 10 min): 0.38 ± 0.23
Incidence of VF (anaesthetized rats [2]; iv 1.0 mg/kg): 50%
Death (anaesthetized rats [2]; iv 1.0 mg/kg): 0
animals with VF (anaesthetized rats [2]; iv 1.0 mg/kg): 3
animals without VF (anaesthetized rats [2]; iv 1.0 mg/kg): 7
Antiarrhythmic effect (anaesthetized rats [2]; iv 1.0 mg/kg, reperfusion 0.17 min): 3.6 ± 1.3
Antiarrhythmic effect (anaesthetized rats [2]; iv 1.0 mg/kg, reperfusion 0.33 min): 4.4 ± 1.5
Antiarrhythmic effect (anaesthetized rats [2]; iv 1.0 mg/kg, reperfusion 0.5 min): 5.3 ± 0.9
Antiarrhythmic effect (anaesthetized rats [2]; iv 1.0 mg/kg, reperfusion 1 min): 2.1 ± 1.7
Antiarrhythmic effect (anaesthetized rats [2]; iv 1.0 mg/kg, reperfusion 2 min): 1.3 ± 1.0
Antiarrhythmic effect (anaesthetized rats [2]; iv 1.0 mg/kg, reperfusion 3 min): 0.6 ± 1.0
Antiarrhythmic effect (anaesthetized rats [2]; iv 1.0 mg/kg, reperfusion 5 min): 0.2 ± 0.4
Antiarrhythmic effect (anaesthetized rats [2]; iv 1.0 mg/kg, reperfusion 6 min): 0.2 ± 0.4
Antiarrhythmic effect (anaesthetized rats [2]; iv 1.0 mg/kg, reperfusion 7 min): 0.2 ± 0.4
Antiarrhythmic effect (anaesthetized rats [2]; iv 1.0 mg/kg, reperfusion 10 min): 0.2 ± 0.4
Antiarrhythmic effect (anaesthetized rats [2]; iv 1.0 mg/kg, reperfusion 15 min): 0.06 ± 0.2
Antiarrhythmic effect (anaesthetized rats [2]; iv 1.0 mg/kg, reperfusion 25 min): 0
Arrhythmic scores (anaesthetized rats [2]; iv 3.0 mg/kg): 1.7 ± 1.8
Antiarrhythmic effect (anaesthetized rats [2]; iv 3.0 mg/kg, coronary occlusion 5 min): 0.2 ± 0.3
Antiarrhythmic effect (anaesthetized rats [2]; iv 3.0 mg/kg, coronary occlusion 10 min): 0.5 ± 0.6
Incidence of VF (anaesthetized rats [2]; iv 3.0 mg/kg): 0%
Death (anaesthetized rats [2]; iv 3.0 mg/kg): 0
animals with VF (anaesthetized rats [2]; iv 3.0 mg/kg): 0
animals without VF (anaesthetized rats [2]; iv 3.0 mg/kg): 10
Antiarrhythmic effect (anaesthetized rats [2]; iv 3.0 mg/kg, reperfusion 0.17 min): 1.2 ± 1.4
Antiarrhythmic effect (anaesthetized rats [2]; iv 3.0 mg/kg, reperfusion 0.33 min): 1.7 ± 1.8
Antiarrhythmic effect (anaesthetized rats [2]; iv 3.0 mg/kg, reperfusion 0.5 min): 1.1 ± 1.4
Antiarrhythmic effect (anaesthetized rats [2]; iv 3.0 mg/kg, reperfusion 1 min): 0.8 ± 1.3
Antiarrhythmic effect (anaesthetized rats [2]; iv 3.0 mg/kg, reperfusion 2 min): 0.4 ± 1.0
Antiarrhythmic effect (anaesthetized rats [2]; iv 3.0 mg/kg, reperfusion 3 min): 0.3 ± 0.5
Antiarrhythmic effect (anaesthetized rats [2]; iv 3.0 mg/kg, reperfusion 5 min): 0.4 ± 0.7
Antiarrhythmic effect (anaesthetized rats [2]; iv 3.0 mg/kg, reperfusion 6 min): 0.3 ± 0.7
Antiarrhythmic effect (anaesthetized rats [2]; iv 3.0 mg/kg, reperfusion 7 min): 0.2 ± 0.4
Antiarrhythmic effect (anaesthetized rats [2]; iv 3.0 mg/kg, reperfusion 10 min): 0.2 ± 0.3
Antiarrhythmic effect (anaesthetized rats [2]; iv 3.0 mg/kg, reperfusion 15 min): 0.1 ± 0.3
Antiarrhythmic effect (anaesthetized rats [2]; iv 3.0 mg/kg, reperfusion 25 min): 0.1 ± 0.3
Antiarrhythmic effect (anaesthetized rats [2]; po 10 mg/kg, coronary occlusion 5 min): 0.5 ± 0.5
Antiarrhythmic effect (anaesthetized rats [2]; po 10 mg/kg, coronary occlusion 10 min): 0.40 ± 0.22
Antiarrhythmic effect (anaesthetized rats [2]; po 10 mg/kg, reperfusion 0.17 min): 2.6 ± 1.6
Antiarrhythmic effect (anaesthetized rats [2]; po 10 mg/kg, reperfusion 0.33 min): 2.6 ± 1.8
Antiarrhythmic effect (anaesthetized rats [2]; po 10 mg/kg, reperfusion 0.5 min): 2.5 ± 2.3
Antiarrhythmic effect (anaesthetized rats [2]; po 10 mg/kg, reperfusion 1 min): 2.2 ± 1.9
Antiarrhythmic effect (anaesthetized rats [2]; po 10 mg/kg, reperfusion 1.5 min): 2.4 ± 2.2
Antiarrhythmic effect (anaesthetized rats [2]; po 10 mg/kg, reperfusion 3 min): 1.5 ± 2.5
Antiarrhythmic effect (anaesthetized rats [2]; po 10 mg/kg, reperfusion 4 min): 1.1 ± 1.9
Antiarrhythmic effect (anaesthetized rats [2]; po 10 mg/kg, reperfusion 5 min): 1.0 ± 1.9
Antiarrhythmic effect (anaesthetized rats [2]; po 10 mg/kg, reperfusion 6 min): 0.8 ± 1.6
Antiarrhythmic effect (anaesthetized rats [2]; po 10 mg/kg, reperfusion 7 min): 1.3 ± 2.5
Antiarrhythmic effect (anaesthetized rats [2]; po 10 mg/kg, reperfusion 15 min): 1.4 ± 2.9
Antiarrhythmic effect (anaesthetized rats [2]; po 10 mg/kg, reperfusion 25 min): 1.4 ± 2.9
Antiarrhythmic effect (anaesthetized rats [2]; po 30 mg/kg, coronary occlusion 5 min): 0.9 ± 0.7
Antiarrhythmic effect (anaesthetized rats [2]; po 30 mg/kg, coronary occlusion 10 min): 1.0 ± 0.9
Antiarrhythmic effect (anaesthetized rats [2]; po 30 mg/kg, reperfusion 0.17 min): 1.7 ± 1.5
Antiarrhythmic effect (anaesthetized rats [2]; po 30 mg/kg, reperfusion 0.33 min): 1.8 ± 1.6
Antiarrhythmic effect (anaesthetized rats [2]; po 30 mg/kg, reperfusion 0.5 min): 1.0 ± 1.0
Antiarrhythmic effect (anaesthetized rats [2]; po 30 mg/kg, reperfusion 1 min): 0.6 ± 0.9
Antiarrhythmic effect (anaesthetized rats [2]; po 30 mg/kg, reperfusion 1.5 min): 0.5 ± 0.6
Antiarrhythmic effect (anaesthetized rats [2]; po 30 mg/kg, reperfusion 3 min): 0.2 ± 0.2
Antiarrhythmic effect (anaesthetized rats [2]; po 30 mg/kg, reperfusion 4 min): 0.2 ± 0.2
Antiarrhythmic effect (anaesthetized rats [2]; po 30 mg/kg, reperfusion 5 min): 0.2 ± 0.2
Antiarrhythmic effect (anaesthetized rats [2]; po 30 mg/kg, reperfusion 6 min): 0.2 ± 0.3
Antiarrhythmic effect (anaesthetized rats [2]; po 30 mg/kg, reperfusion 7 min): 0.2 ± 0.3
Antiarrhythmic effect (anaesthetized rats [2]; po 30 mg/kg, reperfusion 15 min): 0.3 ± 0.3
Antiarrhythmic effect (anaesthetized rats [2]; po 30 mg/kg, reperfusion 25 min): 0.2 ± 0.3
ED50 (anaesthetized rats [3]; iv): 2.23 mg/kg
VFT Before (rabbits; baseline, iv 15 mg/kg group): 5.6 ± 0.9 volt
VFT After (rabbits; iv 15 mg/kg): 8.8 ± 1.6 volt
ΔVFT (rabbits; iv 15 mg/kg): 3.3 ± 0.9 volt

CCCNCC(O)COc1ccccc1C(=O)CCc1ccccc1 (stereo not shown) [propafenon, reference compound]
Arrhythmic scores (anaesthetized rats [2]; po 10 mg/kg): 2.6 ± 1.6
Incidence of VF (anaesthetized rats [2]; po 10 mg/kg): 20%
Death (anaesthetized rats [2]; po 10 mg/kg): 2
animals with VF (anaesthetized rats [2]; po 10 mg/kg): 1
animals without VF (anaesthetized rats [2]; po 10 mg/kg): 7
Arrhythmic scores (anaesthetized rats [2]; po 30 mg/kg): 1.8 ± 1.6
Incidence of VF (anaesthetized rats [2]; po 30 mg/kg): 0%
Death (anaesthetized rats [2]; po 30 mg/kg): 0
animals with VF (anaesthetized rats [2]; po 30 mg/kg): 0
animals without VF (anaesthetized rats [2]; po 30 mg/kg): 10
ED50 (anaesthetized rats [3]; po): 19.3 mg/kg

COc1ccc2cc3[n+](cc2c1O)CCc1cc2c(cc1-3)OCO2 [berberubine]
cardiovascular activities [1]: highly potent cardiovascular activities

Cc1cccc(C)c1OCC(C)N (stereo not shown) [mexiletine, reference compound]
ke [4]: 0.075

COc1cc2c(cc1OC)-c1cc3ccc(OC)c(OC)c3c[n+]1CC2 [palmatine]
cardiovascular activities [1]: highly potent cardiovascular activities

From US5470852A, “Tetrahydroprotoberberine quaternary ammonium compounds useful in for treating arrhythmia” (priority 1991, dated 1995)
